# Data reported in ChEMBL document CHEMBL4665624, “Synthesis of 5-(4-(1H-phenanthro[9,10-d]imidazol-2-yl)benzylidene)thiazolidine-2,4-dione as promising DNA and serum albumin-binding agents and evaluation of antitumor activity” (Eur J Med Chem, 2019).
# The source made the active and inactive calls. The rule behind the calls is not given here.
# Legend:
# HL-60(TB) = assay: Antitumor activity against human HL-60(TB) cells assessed as cell growth inhibition at 10 uM incubated for 48 hrs by sulforhodamine B assay; assay type: functional; details: read-out: GI
# HCT-15 = assay: Antitumor activity against human HCT15 cells assessed as cell growth inhibition at 10 uM incubated for 48 hrs by sulforhodamine B assay; assay type: functional; details: read-out: GI
# SF-295 = assay: Antitumor activity against human SF295 cells assessed as cell growth inhibition at 10 uM incubated for 48 hrs by sulforhodamine B assay; assay type: functional; details: read-out: GI
# UO-31 = assay: Antitumor activity against human UO-31 cells assessed as cell growth inhibition at 10 uM incubated for 48 hrs by sulforhodamine B assay; assay type: functional; details: read-out: GI
# BT-549 = assay: Antitumor activity against human BT-549 cells assessed as cell growth inhibition at 10 uM incubated for 48 hrs by sulforhodamine B assay; assay type: functional; details: read-out: GI
# NCI-H226 = assay: Antitumor activity against human NCI-H226 assessed as cell growth inhibition at 10 uM incubated for 48 hrs by sulforhodamine B assay; assay type: functional; details: read-out: GI
# Hs-578T = assay: Cytotoxicity against human HS 578T cells assessed as cell death at 10 uM incubated for 48 hrs by sulforhodamine B assay; assay type: functional, cell-based
# MCF7 = assay: Antitumor activity against human MCF7 cells assessed as cell growth inhibition at 10 uM incubated for 48 hrs by sulforhodamine B assay; assay type: functional; details: read-out: GI
# SK-MEL-28 = assay: Antitumor activity against human SK-MEL-28 cells assessed as cell growth inhibition at 10 uM incubated for 48 hrs by sulforhodamine B assay; assay type: functional; details: read-out: GI
# K562 = assay: Antitumor activity against human K562 cells assessed as cell growth inhibition at 10 uM incubated for 48 hrs by sulforhodamine B assay; assay type: functional; details: read-out: GI
# SK-OV-3 = assay: Antitumor activity against human SK-OV-3 cells assessed as cell growth inhibition at 10 uM incubated for 48 hrs by sulforhodamine B assay; assay type: functional; details: read-out: GI
# SR = assay: Antitumor activity against human SR cells assessed as cell growth inhibition at 10 uM incubated for 48 hrs by sulforhodamine B assay; assay type: functional; details: read-out: GI
# RPMI-8226 = assay: Antitumor activity against human RPMI8226 cells assessed as cell growth inhibition at 10 uM incubated for 48 hrs by sulforhodamine B assay; assay type: functional; details: read-out: GI
# HCC 2998 = assay: Cytotoxicity against human HCC2998 cells assessed as cell death at 10 uM incubated for 48 hrs by sulforhodamine B assay; assay type: functional, cell-based
# NCI-H522 = assay: Antitumor activity against human NCI-H522 cells assessed as cell growth inhibition at 10 uM incubated for 48 hrs by sulforhodamine B assay; assay type: functional; details: read-out: GI
# SF-268 = assay: Antitumor activity against human SF268 cells assessed as cell growth inhibition at 10 uM incubated for 48 hrs by sulforhodamine B assay; assay type: functional; details: read-out: GI
# NCI/ADR-RES = assay: Antitumor activity against human NCI/ADR-RES cells assessed as cell growth inhibition at 10 uM incubated for 48 hrs by sulforhodamine B assay; assay type: functional; details: read-out: GI
# HCT-116 = assay: Antitumor activity against human HCT116 cells assessed as cell growth inhibition at 10 uM incubated for 48 hrs by sulforhodamine B assay; assay type: functional; details: read-out: GI
# UACC-62 = assay: Antitumor activity against human UACC-62 cells assessed as cell growth inhibition at 10 uM incubated for 48 hrs by sulforhodamine B assay; assay type: functional; details: read-out: GI
# SW-620 = assay: Antitumor activity against human SW620 cells assessed as cell growth inhibition at 10 uM incubated for 48 hrs by sulforhodamine B assay; details: SW-620, 48 h, read-out: GI
# Malme-3M = assay: Antitumor activity against human MALME-3M cells assessed as cell growth inhibition at 10 uM incubated for 48 hrs by sulforhodamine B assay; assay type: functional; details: read-out: GI
# PC-3 = assay: Antitumor activity against human PC-3 cells assessed as cell growth inhibition at 10 uM incubated for 48 hrs by sulforhodamine B assay; assay type: functional; details: read-out: GI
# CCRF-CEM = assay: Antitumor activity against human CCRF-CEM cells assessed as cell growth inhibition at 10 uM incubated for 48 hrs by sulforhodamine B assay; assay type: functional; details: read-out: GI
# SN12C = assay: Antitumor activity against human SN12C cells assessed as cell growth inhibition at 10 uM incubated for 48 hrs by sulforhodamine B assay; assay type: functional; details: read-out: GI
# IGROV-1 = assay: Antitumor activity against human IGROV1 cells assessed as cell growth inhibition at 10 uM incubated for 48 hrs by sulforhodamine B assay; assay type: functional; details: read-out: GI
# KM12 = assay: Antitumor activity against human KM12 cells assessed as cell growth inhibition at 10 uM incubated for 48 hrs by sulforhodamine B assay; assay type: functional; details: read-out: GI
# OVCAR-3 = assay: Antitumor activity against human OVCAR-3 cells assessed as cell growth inhibition at 10 uM incubated for 48 hrs by sulforhodamine B assay; assay type: functional; details: read-out: GI
# MDA-MB-231 = assay: Antitumor activity against human MDA-MB-231/ATCC cells assessed as cell growth inhibition at 10 uM incubated for 48 hrs by sulforhodamine B assay; assay type: functional; details: read-out: GI
# SNB-75 = assay: Antitumor activity against human SNB-75 cells assessed as cell growth inhibition at 10 uM incubated for 48 hrs by sulforhodamine B assay; assay type: functional; details: read-out: GI
# U-251 = assay: Antitumor activity against human U251 cells assessed as cell growth inhibition at 10 uM incubated for 48 hrs by sulforhodamine B assay; assay type: functional; details: read-out: GI
# NCI-H23 = assay: Antitumor activity against human NCI-H23 cells assessed as cell growth inhibition at 10 uM incubated for 48 hrs by sulforhodamine B assay; assay type: functional; details: read-out: GI
# ACHN = assay: Antitumor activity against human ACHN cells assessed as cell growth inhibition at 10 uM incubated for 48 hrs by sulforhodamine B assay; assay type: functional; details: read-out: GI
# LOX IMVI = assay: Antitumor activity against human LOX IMVI cells assessed as cell growth inhibition at 10 uM incubated for 48 hrs by sulforhodamine B assay; assay type: functional; details: read-out: GI
# HOP-92 = assay: Antitumor activity against human HOP92 cells assessed as cell growth inhibition at 10 uM incubated for 48 hrs by sulforhodamine B assay; assay type: functional; details: read-out: GI
# OVCAR-4 = assay: Antitumor activity against human OVCAR-4 cells assessed as cell growth inhibition at 10 uM incubated for 48 hrs by sulforhodamine B assay; assay type: functional; details: read-out: GI
# MOLT-4 = assay: Antitumor activity against human MOLT4 cells assessed as cell growth inhibition at 10 uM incubated for 48 hrs by sulforhodamine B assay; assay type: functional; details: read-out: GI
# A498 = assay: Cytotoxicity against human A498 cells assessed as cell death at 10 uM incubated for 48 hrs by sulforhodamine B assay; assay type: functional, cell-based
smiles,measurement,setting,value
O=c1[nH]cc(F)c(=O)[nH]1 [FLUOROURACIL],inhibition of growth at 10 µM,HL-60(TB),47.9%
same,inhibition of growth at 10 µM,HCT-15,26.5%
same,inhibition of growth at 10 µM,SF-295,69%
same,inhibition of growth at 10 µM,UO-31,41.3%
same,inhibition of growth at 10 µM,BT-549,37.8%
same,inhibition of growth at 10 µM,NCI-H226,69.5%
same,Activity,Hs-578T,Active
same,inhibition of growth at 10 µM,MCF7,11.5%
same,inhibition of growth at 10 µM,SK-MEL-28,19.5%
same,inhibition of growth at 10 µM,K562,42.3%
same,inhibition of growth at 10 µM,SK-OV-3,77.5%
same,inhibition of growth at 10 µM,SR,24.8%
same,inhibition of growth at 10 µM,RPMI-8226,41.4%
same,Activity,HCC 2998,Active
same,inhibition of growth at 10 µM,NCI-H522,58%
same,inhibition of growth at 10 µM,SF-268,59%
same,inhibition of growth at 10 µM,NCI/ADR-RES,47.6%
same,inhibition of growth at 10 µM,HCT-116,17.8%
same,inhibition of growth at 10 µM,UACC-62,39.7%
same,inhibition of growth at 10 µM,SW-620,< 10%
same,inhibition of growth at 10 µM,Malme-3M,58.2%
same,inhibition of growth at 10 µM,PC-3,58.2%
same,inhibition of growth at 10 µM,CCRF-CEM,57.1%
same,inhibition of growth at 10 µM,SN12C,54%
same,inhibition of growth at 10 µM,IGROV-1,51.2%
same,inhibition of growth at 10 µM,KM12,40.7%
same,inhibition of growth at 10 µM,OVCAR-3,47.4%
same,inhibition of growth at 10 µM,MDA-MB-231,78.1%
same,inhibition of growth at 10 µM,SNB-75,65.9%
same,inhibition of growth at 10 µM,U-251,50.3%
same,inhibition of growth at 10 µM,NCI-H23,39%
same,inhibition of growth at 10 µM,ACHN,39.3%
same,inhibition of growth at 10 µM,LOX IMVI,30.4%
same,inhibition of growth at 10 µM,HOP-92,50.6%
same,inhibition of growth at 10 µM,OVCAR-4,59.4%
same,inhibition of growth at 10 µM,MOLT-4,43.1%
same,Activity,A498,Active
